Several values for one entry are separate records, joined by “and”; a condition that tells them apart may be missing. Identical values can stand only once.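 Growth conditions: 96-well plates. Treatment: test compound, 48 hours, 5 concentrations. Analysis: linear interpolation between bracketing concentrations; unreached endpoints set to highest concentration. GI50 is the concentration that inhibits growth by half. TGI: total growth inhibition.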

The experiment deals with MDA-MB-468 breast. Kind of experiment: NCI-60 cell line screen, 48 h.
With `CCCC(=O)OCC1OC(n2cnc3c(=S)nc(N)[nH]c32)C(OC(=O)CCC)C1OC(=O)CCC` (centres undefined), the GI50 is 332 nM and the TGI was found to be 2670 nM.

Consider `ClC(Cl)c1nc(-c2ccccc2)n2nc(-c3ccccc3)cc2n1`, for which the GI50 is 287 nM and the TGI stood at 1250 nM. Taken in the same sequence, the figures for `COc1ccc2c(c1)O/C(=C\c1ncc([N+](=O)[O-])n1C)C2=O` were 1330 nM and 3720 nM. For `Cc1ccc2cc3c(cc(C)c4ccccc43)c3c2c1CC3`, in that order: over 100000 nM and over 100000 nM.

As for `CCn1nc(-c2ccc(C(=O)OC)cc2)nc2c(=O)n(C)c(=O)nc1-2`, the GI50 is 189 nM and the TGI was determined as 477 nM.

Turning to `CN1C[C@@H](c2ccc(Cl)cc2)[C@]2(NC(=S)N(c3ccc(F)c(Cl)c3)C2=O)[C@@]12C(=O)NC1C=CC(Cl)=C[C@H]12` (some centres undefined), the GI50 was 3380 nM and the TGI was determined as 12900 nM.

Regarding `CC(C)N(Cc1c(F)cccc1F)c1ccc(CO)c(Cl)c1`, the GI50 was 18.7 nM and the TGI amounted to 53.1 nM. As to `O=C1CCC/C=C\C[C@H]2C=CC(=O)/C2=C/C[C@H](CCc2cccc(C(F)(F)F)c2)O1`, the GI50 was 1690 nM and the TGI worked out at 3710 nM. In the case of `COC(=O)c1c(C)c2n(c1C)C(=O)C(c1ccccc1)=C2`, the GI50 was 4880 nM and the TGI is over 72800 nM. Take `COc1ccc(C(=O)c2cc(OC)c(OC)c(OC)c2)cc1OC(=O)C(Cl)(Cl)Cl`: the GI50 was 542 nM. Take `CC(C)C[C@@H](NC(=O)[C@@H](Cc1ccccc1)NC(=O)c1cnccn1)B1Oc2ccc(C[C@H](NC(=O)[C@H](Cc3ccc4c(c3)OB([C@@H](CC(C)C)NC(=O)[C@@H](Cc3ccccc3)NC(=O)c3cnccn3)O4)NC(=O)[C@@H](N)CC3CCC4OB([C@@H](CC(C)C)NC(=O)[C@@H](CC5CCCCC5)NC(=O)C5CNCCN5)OC4C3)C(=O)NCCCC[C@@H]3NC(=O)[C@@H](Cc4ccccc4)NC(=O)[C@H](CC(=O)O)NC(=O)CNC(=O)[C@H](CCCNC(=N)N)NC3=O)cc2O1` (some centres undefined): the GI50 is 2.72 nM and < 2.5 nM; the TGI is 7.22 nM and < 2.5 nM. Take `O=S(=O)(Nc1ccc(Cl)c(F)c1)c1ccc(-c2cnc(C3CC3)o2)cc1`: the GI50 is 187 nM and the TGI was found to be 998 nM. For `COc1cc2c(cc1O)CC[C@@H]1[C@@H]2CC[C@]2(C)[C@@H](OCCCN(C)C)CC[C@@H]12`, in that order: 120 nM and 300 nM.

As to `COc1ccc(OC)c(/C=C/C(=O)N/N=C/c2ccccc2)c1`, the GI50 was 1960 nM and the TGI was 6470 nM. For `COc1ccc(C2=C(c3cn(C)c4ccccc34)C(=O)OC2)cc1OC`, in that order: 1650 nM and over 100000 nM. Taken in the same sequence, the figures for `CN1CCN(Cc2ccc(NC(=O)c3cncc(C#Cc4cnc5ccc(O[C@H]6CCOC6)nn45)c3)cc2C(F)(F)F)CC1` were 750 nM and 1690 nM. Taken in the same sequence, the figures for `O=C1CCc2c(Oc3ccc4c(c3)[C@H]3[C@@H](O4)[C@@H]3c3nc4ccc(C(F)(F)F)cc4[nH]3)ccnc2N1` were 1740 nM and 7130 nM. As to `O=C(Nc1ccc(F)cc1F)c1cc(F)ccc1O`, the GI50 was 2600 nM and the TGI worked out at 7880 nM.

With `COc1cc(-c2nn(-c3ccc(NC(=O)NCCNS(=O)(=O)c4ccc(F)cc4)cc3)cc2-c2ccncc2)ccc1Cl`, the GI50 is 323 nM and the TGI came to 1280 nM. For `Nc1ccccc1NC(=O)c1ccc(CNC(=O)OCc2cccnc2)cc1`, the GI50 is 412 nM and the TGI was 2050 nM. For the compound `C/C=C/C1=CN2C(=O)c3cc(OC4OC(C)C(NC)C(C)(O)C4O)c(C)cc3N=C[C@@H]2C1` (some centres undefined), the GI50 is 10.7 nM and the TGI was found to be 28.2 nM. Turning to `C=CC(C)c1cccc(C=O)c1O` (centres undefined), the GI50 was 51600 nM and the TGI was over 100000 nM.

Regarding `COc1cccc(/C=C2\COc3ccc(O)c(O)c3C2=O)c1`, the GI50 was 1150 nM and the TGI was 3150 nM. Taken in the same sequence, the figures for `CCN(Cc1ccccn1)c1ccc(CO)c(Cl)c1` were 127 nM and 331 nM. For `C#C[C@@]1(O)[C@@H](CO)O[C@@H](n2cc(Br)c3c(N)ncnc32)[C@@H]1O`, in that order: 115 nM and 352 nM. For `O=c1nc(Nc2ccc([N+](=O)[O-])cc2O)sc2ccccc12`, in that order: 340 nM and 1210 nM. Consider `N#C/C(=C1C=C/C(=N/O)C(Cl)=C/1)c1ccc(Cl)cc1`, for which the GI50 is 3000 nM and the TGI was 9700 nM. For `Cc1ccc(-c2nc3nc(-c4ccc(Br)cc4)nc(N4CCCNCC4)c3o2)cc1`, in that order: 3980 nM and 15900 nM. For `NC(=O)c1c(Br)n(C2OC(CO)C(O)C2O)c2ncnc(N)c12` (centres undefined), in that order: 437 nM and 2360 nM.

For `O=C(NC1CCCCC1)OCc1c(COC(=O)NC2CCCCC2)c(-c2ccc(Cl)c(Cl)c2)n2c1CCC2`, the GI50 is 1800 nM and the TGI was found to be 10900 nM.

The values are drawn from PubChem BioAssay (NCI).
